Measurements reported in patent US20090233957A1, “(-)-BELOXEPIN AND METHODS FOR ITS SYNTHESIS AND USE” (priority 2008, published 2009).

What was measured:
[1] = target: T1, cloned human 5HT2B receptor (Homo sapiens, UniProt P41595); test: 5HT2B receptor binding assay, [125I]DOI; conditions: CHO membranes
T1 construct: expressed in transfected cells; host or cells: CHO cells
Method: For the 5HT2B receptor binding assay, [^125I](±)[…] (DOI) (0.2 nM) was incubated for 15 min at 37° C. with membranes prepared from Chinese hamster ovary cells heterologously expressing the cloned human 5HT2B receptor according to the method of Choi et al., 1994, FEBS Lett 352:393-399. Various concentrations of test compound were added and bound radioactivity was determined by scintillation counting. Non-specific binding was determined in the presence of 1.0 μM unlabeled DOI. The Ki value for the test compound was determined using standard methods.

[2] = system: rat hindpaw incision model; test: rat hindpaw incisional pain model, tactile allodynia; assay type: in vivo; conditions: 30 mg/kg IP, 24 hours post-surgery
Method: Protocol. A time course experiment was also performed with (−)-beloxepin in the hindpaw incision model. At 24 hours post-surgery, rats received vehicle or (−)-beloxepin (30 mg/kg IP). Rats were tested for tactile allodynia at 30, 60, 120 and 240 minutes after administration of (−)-beloxepin.
Protocol. Another time course experiment was performed with (+)-beloxepin in the hindpaw incision model. At 24 hours post-surgery, rats received vehicle or (+)-beloxepin (30 mg/kg IP). Rats were tested for tactile allodynia at 30, 60, 120 and 240 minutes after administration of (+)-beloxepin.

human recombinant CYP2D6 = target: T2, human recombinant CYP2D6 (Homo sapiens, UniProt P10635); test: CYP2D6 inhibition, MAMC substrate; assay type: in vitro ADME
T2 construct: purchased BD Bioscience
Method: Protocol. […] The source of the enzyme was microsomes containing human recombinant CYP2D6 obtained from BD Bioscience. Conversion of MAMC to 7-hydroxy-4-(aminomethyl)coumarin was measured using a PerkinElmer Fusion with a 390 nm excitation filter and a 460 nm emission filter.

[3] = system: rat 50° C. hot plate model; test: rat 50° C. hot plate assay; assay type: in vivo; conditions: for level of antinociception, positive control: 3 mg/kg SC, 30 min
Method: Protocol. Rats were treated with vehicle, 30 mg/kg IP of (−)-beloxepin, or 30 mg/kg IP of (+)-beloxepin and then were placed on a hot plate (50° C.) 30, 60, or 120 minutes after administration of the vehicle or beloxepin enantiomer. Rats treated with 3 mg/kg SC of morphine and tested 30 min post-treatment were used as a positive control in these experiments.

L5 SNL rats = test: L5 Single Nerve Ligation model of neuropathic pain, tactile allodynia (von Frey); assay type: in vivo, rat
Method: Protocol. The antiallodynic activity of (−)-beloxepin was tested in vivo using the L5—Single Nerve Ligation model of non-nociceptive neuropathic pain as described in LaBuda & Little, 2005, J. Neurosci. Methods 144:175-181. The test animals were placed in a Plexiglas chamber (10 cm×20 cm×25 cm) and habituated for 15 minutes. The chamber was positioned on top of a mesh screen so that von Frey monofilaments could be presented to the plantar surface of both hindpaws. Measurement of tactile sensitivity for each hind paw were obtained using the up/down method (Dixon, 1980, Annu. Rev. Pharmacol. Toxicol. 20:441-462) with seven Frey monofilaments (0.4, 1, 2, 4, 6, 8 and 15 grams). Each trial started with a von Frey force of 2 grams delivered to the right hind paw for approximately 1-2 seconds and then the left hind paw. If there was no withdrawal response, the next higher force was delivered. If there was a response, the next lower force was delivered. This procedure was performed until no response was made at the highest force (15 grams) or until four stimuli were administered following the initial response. The 50% paw withdrawal threshold for each paw was calculated using the following formula: [Xth]log=[vFr]log+ky, where [vFr] is the force of the last von Frey used, k=0.2249 which is the average interval (in log units) between the von Frey monofilaments, and y is a value that depends upon the pattern of withdrawal responses (Dixon, 1980, supra). […] Testing for tactile sensitivity was performed twice and the mean 50% withdrawal value assigned as the tactile sensitivity for the right and left paws for each animal.
Results. The antiallodynic effects produced by (−)-beloxepin (30 mg/kg IP) and (+)-beloxepin (30 mg/kg IP) in L5 SNL rats 8 days post surgery are illustrated in FIG. 1. In this experiment, at 8 days post surgery, rats were treated with vehicle or beloxepin enantiomers (30 mg/kg IP) and tested for tactile allodynia at 30 min post treatment. […] No side effects were observed following treatment with either enantiomer.
The antiallodynic effects produced by (−)-beloxepin (30 mg/kg IP) in L5 SNL rats 14 days post surgery are illustrated in FIG. 2. In this experiment, at 14 days post surgery, rats were treated with vehicle or (−)-beloxepin and tested for tactile allodynia at 30, 60, 120 and 240 min post treatment. Vehicle treated rats were tested at 30 min post treatment.
Protocol. A time course experiment was performed with (−)-beloxepin (60 mg/kg PO) in L5 SNL rats at 7 days post-surgery. Rats were tested at 30, 60, 120, and 240 minutes post-drug.
Protocol. A time course experiment was also performed with (+)-beloxepin (60 mg/kg PO) in L5 SNL rats at 14 days post-surgery. Rats were tested at 30, 60, 120, and 240 minutes post-drug.

[4] = target: T3, cloned human 5HT2A receptor (Homo sapiens, UniProt P28223); test: 5HT2A receptor binding assay, [3H]ketanserin; conditions: HEK-293 membranes
T3 construct: expressed in transfected cells; host or cells: HEK-293 cells
Method: For the 5HT2A receptor binding assay, [^3H]ketanserin (0.5 nM) was incubated for 60 min at 22° C. with membranes prepared from HEK-293 cells heterologously expressing the cloned human 5-HT2A receptor according to the method of Bonhaus et al., 1995, Brit. J. Pharmacol. 115:622-628. Various concentrations of test compound were added and bound radioactivity was determined by scintillation counting. Non-specific binding was determined in the presence of 1.0 μM unlabeled ketanserin. The Ki value for the test compound was determined using standard methods.

[5] = target: T4, cloned human 5HT2C receptor (Homo sapiens, UniProt P28335); test: 5HT2C receptor binding assay, [3H]mesulergine; conditions: CHO membranes
T4 construct: expressed in transfected cells; host or cells: CHO cells
T4 sequence (P28335 33-458): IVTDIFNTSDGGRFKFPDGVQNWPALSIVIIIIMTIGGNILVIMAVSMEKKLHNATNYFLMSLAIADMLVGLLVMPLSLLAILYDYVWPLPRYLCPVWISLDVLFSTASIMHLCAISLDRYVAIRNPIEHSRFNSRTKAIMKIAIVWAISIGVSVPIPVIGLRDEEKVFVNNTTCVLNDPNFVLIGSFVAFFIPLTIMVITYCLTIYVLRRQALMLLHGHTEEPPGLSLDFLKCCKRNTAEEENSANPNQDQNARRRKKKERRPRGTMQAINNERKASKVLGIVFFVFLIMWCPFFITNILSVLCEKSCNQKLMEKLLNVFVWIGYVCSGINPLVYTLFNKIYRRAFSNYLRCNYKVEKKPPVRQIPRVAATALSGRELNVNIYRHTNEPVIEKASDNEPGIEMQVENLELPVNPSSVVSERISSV
Method: For the 5HT2C receptor binding assay, [^3H]mesulergine (1.0 nM) was incubated for 60 min at 37° C. with membranes prepared from Chinese hamster ovary cells heterologously expressing the cloned human 5-HT2C receptor according to the method of Stam et al., 1994, Eur. J. Pharmacol. 269:339-348. Various concentrations of test compound were added and bound radioactivity was determined by scintillation counting. Non-specific binding was determined in the presence of 10 μM RS102221. The Ki value for the test compound was determined using standard methods.

[6] = target: T5, cloned human NE transporter (hNET) (Homo sapiens, UniProt P23975); test: NE transporter binding assay, [3H]nisoxetine
T5 construct: expressed in transfected cells; host or cells: CHO cells
Method: Protocols. For the NE transporter binding assay, [^3H]nisoxetine (1.0 nM) was incubated with various concentrations of test compounds for 2 hours at 4° C. with membranes prepared from Chinese hamster ovary cells (CHO) cells heterologously expressing the cloned human NE transporter (hNET). Bound radioactivity was determined by scintillation spectroscopy.

[7] = system: pain intensity in study completers; conditions: cited from earlier work
[8] = 30 mg/kg IP, 8 days post surgery, 30 min post treatment

T5 sequence (P23975 whole entry): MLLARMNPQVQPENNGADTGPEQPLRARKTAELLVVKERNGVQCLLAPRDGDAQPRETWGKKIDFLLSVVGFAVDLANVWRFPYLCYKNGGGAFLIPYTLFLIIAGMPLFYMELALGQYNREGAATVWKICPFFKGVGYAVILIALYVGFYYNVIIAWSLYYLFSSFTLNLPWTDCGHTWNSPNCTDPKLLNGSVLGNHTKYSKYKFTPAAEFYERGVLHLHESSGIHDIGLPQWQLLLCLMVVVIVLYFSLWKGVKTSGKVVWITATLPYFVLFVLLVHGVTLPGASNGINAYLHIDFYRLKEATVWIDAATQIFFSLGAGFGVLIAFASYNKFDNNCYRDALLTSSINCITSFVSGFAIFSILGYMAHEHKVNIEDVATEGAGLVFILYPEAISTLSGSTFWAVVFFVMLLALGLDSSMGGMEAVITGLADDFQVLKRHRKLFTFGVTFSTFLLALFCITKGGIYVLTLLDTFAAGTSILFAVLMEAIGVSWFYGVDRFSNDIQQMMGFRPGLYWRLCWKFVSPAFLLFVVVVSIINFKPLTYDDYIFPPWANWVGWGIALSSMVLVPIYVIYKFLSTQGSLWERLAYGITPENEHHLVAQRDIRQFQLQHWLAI
T2 sequence (P10635 whole entry): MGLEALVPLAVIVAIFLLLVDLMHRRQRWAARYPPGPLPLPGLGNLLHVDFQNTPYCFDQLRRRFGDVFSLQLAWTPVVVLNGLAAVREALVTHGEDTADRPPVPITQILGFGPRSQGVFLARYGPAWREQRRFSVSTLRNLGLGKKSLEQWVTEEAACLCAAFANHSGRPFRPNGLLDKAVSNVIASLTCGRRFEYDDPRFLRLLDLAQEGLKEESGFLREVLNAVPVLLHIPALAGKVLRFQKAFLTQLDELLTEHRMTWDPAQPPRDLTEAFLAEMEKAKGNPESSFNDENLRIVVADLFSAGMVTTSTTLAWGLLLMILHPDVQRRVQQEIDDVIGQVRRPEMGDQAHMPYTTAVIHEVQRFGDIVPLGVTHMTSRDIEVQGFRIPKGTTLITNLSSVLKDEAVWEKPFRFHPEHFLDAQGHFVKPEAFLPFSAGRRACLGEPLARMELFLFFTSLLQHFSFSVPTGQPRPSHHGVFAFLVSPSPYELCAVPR
T3 sequence (P28223 whole entry): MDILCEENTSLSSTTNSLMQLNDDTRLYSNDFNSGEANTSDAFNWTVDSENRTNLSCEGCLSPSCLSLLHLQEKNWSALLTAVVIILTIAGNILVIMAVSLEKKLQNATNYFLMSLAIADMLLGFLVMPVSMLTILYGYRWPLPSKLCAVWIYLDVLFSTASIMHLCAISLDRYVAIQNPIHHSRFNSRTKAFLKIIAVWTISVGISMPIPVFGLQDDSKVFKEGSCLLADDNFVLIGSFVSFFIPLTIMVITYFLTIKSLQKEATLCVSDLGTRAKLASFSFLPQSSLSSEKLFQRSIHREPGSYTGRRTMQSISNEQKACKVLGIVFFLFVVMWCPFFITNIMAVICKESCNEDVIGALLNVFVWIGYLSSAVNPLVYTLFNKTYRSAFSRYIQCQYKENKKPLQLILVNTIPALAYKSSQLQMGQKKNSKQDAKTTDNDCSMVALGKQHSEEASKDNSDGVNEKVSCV
T1 sequence (P41595 whole entry): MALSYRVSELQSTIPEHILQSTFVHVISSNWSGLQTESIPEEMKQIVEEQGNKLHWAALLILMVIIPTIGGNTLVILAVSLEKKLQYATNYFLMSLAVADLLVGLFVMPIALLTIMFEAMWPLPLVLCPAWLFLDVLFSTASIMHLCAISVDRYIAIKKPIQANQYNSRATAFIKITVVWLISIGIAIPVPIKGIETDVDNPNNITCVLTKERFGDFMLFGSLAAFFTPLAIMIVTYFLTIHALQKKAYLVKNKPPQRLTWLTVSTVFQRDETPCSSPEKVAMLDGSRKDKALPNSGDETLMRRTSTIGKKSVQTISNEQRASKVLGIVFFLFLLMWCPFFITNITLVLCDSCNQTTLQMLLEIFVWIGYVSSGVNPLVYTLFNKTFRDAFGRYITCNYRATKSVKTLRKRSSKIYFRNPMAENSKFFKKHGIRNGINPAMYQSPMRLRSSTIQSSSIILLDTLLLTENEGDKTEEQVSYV

Cc1cccc2c1Oc1ccccc1C1(O)CCN(C)CC21 (single isomer, unassigned; (-)) [(−)-beloxepin]
Ki [1]: > 10 µM | hindpaw withdrawal threshold, % of the threshold value for vehicle treated rats ([2]; 30 minute time point): 426% | maximum hindpaw withdrawal threshold ([2]; 30 minute time point): ~19 grams | antiallodynic effect ([2]; tested 30, 60, 120, 240 min): significant antiallodynic effect at the 30 and 120 minute time point | IC50 (human recombinant CYP2D6): 4.37 µM | antinociceptive activity ([3]; 30 mg/kg IP, 30, 60, 120 min): robust antinociceptive activity at 30, 60, and 120 minutes after treatment | peak antinociception ([3]; 30 mg/kg IP, 30 min post-treatment): 79±10 % MPE | antiallodynia, % of the threshold of vehicle-treated L5 SNL rats (L5 SNL rats; [8]): 444% | antiallodynic effect (L5 SNL rats; [8]): significant antiallodynia | maximal efficacy, % of the threshold of vehicle-treated rats (L5 SNL rats; 30 mg/kg IP, 14 days post surgery): 635% | antiallodynic effect (L5 SNL rats; 30 mg/kg IP, 14 days post surgery, tested 30, 60, 120, 240 min): significant antiallodynic effects at the 30 and 60 min time points | antiallodynic effect (L5 SNL rats; 60 mg/kg PO, 7 days post-surgery, tested 30, 60, 120, 240 min): significant antiallodynic effects at the 60 and 120 minute time points | Ki [4]: > 10 µM | Ki [5]: > 10 µM | higher affinity at the NET than the (+) enantiomer ([6]; (−) vs (+) enantiomer): approximately 8 fold | Ki ([6]; membranes of CHO cells expressing hNET, read-out: NET Ki): 0.39 µM

CNCCCC12CCC(c3ccccc31)c1ccccc12 [maprotiline]
reduction in pain intensity [7]: 45%

CN1CC[C@]23c4c5ccc(O)c4O[C@H]2[C@@H](O)C=C[C@H]3[C@H]1C5 [morphine, reference compound]
level of antinociception, positive control ([3]; 'in these experiments'): 61±7 % MPE | level of antinociception, positive control ([3]; (+)-beloxepin experiment (FIG. 8)): 85±7 % MPE | level of antinociception, positive control ([3]; (−)-beloxepin experiment (FIG. 7)): 65±11 % MPE

Fc1ccc([C@@H]2CCNC[C@H]2COc2ccc3c(c2)OCO3)cc1 [paroxetine]
reduction in pain intensity [7]: 26%
